# Source: PMC12368656 (2025)
# Tests used:
# [1] = test system: 3′-methylene blue- and 5′-thiol-modified oligonucleotide with affinity toward vancomycin (aptamer probe) (DNA, aptamer) CGAGGGTACCGCAATAGTACTTATTGTTCGCCTATTGTGGGTCGG; experiment: electrochemical aptamer-based sensor, SWV titration, planar gold electrode; settings: Na+ (0.5 wt % NaCl); artificial sweat (0.1 wt % urea, 0.1 wt % lactic acid), pH 6.5, room temperature; apparent
# [2] = test system: 3′-methylene blue- and 5′-thiol-modified oligonucleotide with affinity toward vancomycin (aptamer probe) (DNA, aptamer) CGAGGGTACCGCAATAGTACTTATTGTTCGCCTATTGTGGGTCGG; experiment: electrochemical aptamer-based sensor, SWV titration, gold-coated microstructured electrode (MSE); settings: Na+ (0.5 wt % NaCl); artificial sweat (0.1 wt % urea, 0.1 wt % lactic acid), pH 6.5, room temperature; apparent
compound,measurement,setting,value
CN[C@H](CC(C)C)C(=O)N[C@H]1C(=O)N[C@@H](CC(N)=O)C(=O)N[C@H]2C(=O)N[C@H]3C(=O)N[C@H](C(=O)N[C@H](C(=O)O)c4cc(O)cc(O)c4-c4cc3ccc4O)[C@H](O)c3ccc(c(Cl)c3)Oc3cc2cc(c3O[C@@H]2O[C@H](CO)[C@@H](O)[C@H](O)[C@H]2O[C@H]2C[C@](C)(N)[C@H](O)[C@H](C)O2)Oc2ccc(cc2Cl)[C@H]1O,KD,[1],26.3 ± 3.3 µM
same,KD,[2],46.6 ± 4.1 µM
